# Assay results from the supplement of paper PMC10307832.
# What was measured:
# Assay in all cases: relative viability (nuclei count vs DMSO), 5 days (fraction); higher = more cells survive
# HCC-827 = tested on: HCC-827
# How it was run: (§1)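 Lung cancer cell lines, seeded in 1536-well plates, were treated the following day by pin tool with a single drug or with five library-drug doses (not always all listed) in √10 steps on top of a fixed anchor-drug dose. Cells were fixed and nuclei stained in one step after 5 days, and nuclei were counted. Relative viability is the nuclei count for treated wells divided by that for vehicle wells, reported as medians of duplicate plates.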
# HCC-78 = tested on: HCC-78
# How it was run: as §1
# HCC-366 = tested on: HCC-366
# How it was run: as §1
# SK-MES-1 = tested on: SK-MES-1
# How it was run: as §1
# NCI-H1437 = tested on: NCI-H1437
# How it was run: as §1
# SK-LU-1 = tested on: SK-LU-1
# How it was run: as §1
# NCI-H727 = tested on: NCI-H727
# How it was run: as §1
# COR-L 105 = tested on: COR-L 105
# How it was run: as §1
# UMC-11 = tested on: UMC-11
# How it was run: as §1
# NCI-H1792 = tested on: NCI-H1792
# How it was run: as §1
# NCI-H1944 = tested on: NCI-H1944
# How it was run: as §1
# NCI-H2085 = tested on: NCI-H2085
# How it was run: as §1
# EPLC-272H = tested on: EPLC-272H
# How it was run: as §1
# NCI-H2023 = tested on: NCI-H2023
# How it was run: as §1
# NCI-H358 = tested on: NCI-H358
# How it was run: as §1
# HCC-15 = tested on: HCC-15
# How it was run: as §1
# COR-L23 = tested on: COR-L23
# How it was run: as §1
# NCI-H1395 = tested on: NCI-H1395
# How it was run: as §1
# NCI-H661 = tested on: NCI-H661
# How it was run: as §1
# HCC-44 = tested on: HCC-44
# How it was run: as §1
# LCLC-103H = tested on: LCLC-103H
# How it was run: as §1
# NCI-H2405 = tested on: NCI-H2405
# How it was run: as §1
# HARA = tested on: HARA
# How it was run: as §1
# NCI-H1975 = tested on: NCI-H1975
# How it was run: as §1
structure (smiles),measurement,setting,value
CCCCCCCCCCCC1=C(O)C(=O)C=C(O)C1=O [Embelin] + C[C@]1(O)C[C@@H](c2nc(-c3ccc4ccc(-c5ccccc5)nc4c3)c3c(N)nccn32)C1 [Linsitinib] (partner 1 µM),relative viability,HCC-827; first compound 0.08 µM,0.997
same,relative viability,HCC-827; first compound 0.8 µM,0.949
same,relative viability,HCC-827; first compound 2.53 µM,0.992
same,relative viability,HCC-827; first compound 8 µM,1.01
same,relative viability,HCC-78; first compound 0.08 µM,0.516
same,relative viability,HCC-78; first compound 0.8 µM,0.623
same,relative viability,HCC-78; first compound 2.53 µM,0.52
same,relative viability,HCC-78; first compound 8 µM,0.413
same,relative viability,HCC-366; first compound 0.08 µM,0.697
same,relative viability,HCC-366; first compound 0.8 µM,0.726
same,relative viability,HCC-366; first compound 2.53 µM,0.846
same,relative viability,HCC-366; first compound 8 µM,0.49
same,relative viability,SK-MES-1; first compound 0.08 µM,1.17
same,relative viability,SK-MES-1; first compound 0.8 µM,1.11
same,relative viability,SK-MES-1; first compound 2.53 µM,1.17
same,relative viability,SK-MES-1; first compound 8 µM,1.04
same,relative viability,NCI-H1437; first compound 0.08 µM,1.01
same,relative viability,NCI-H1437; first compound 0.8 µM,1.1
same,relative viability,NCI-H1437; first compound 2.53 µM,1.24
same,relative viability,NCI-H1437; first compound 8 µM,0.76
same,relative viability,SK-LU-1; first compound 0.08 µM,1.17
same,relative viability,SK-LU-1; first compound 0.8 µM,1.28
same,relative viability,SK-LU-1; first compound 2.53 µM,1.1
same,relative viability,SK-LU-1; first compound 8 µM,0.993
same,relative viability,NCI-H727; first compound 0.08 µM,0.282
same,relative viability,NCI-H727; first compound 0.8 µM,0.192
same,relative viability,NCI-H727; first compound 2.53 µM,0.307
same,relative viability,NCI-H727; first compound 8 µM,0.268
same,relative viability,COR-L 105; first compound 0.08 µM,1.02
same,relative viability,COR-L 105; first compound 0.8 µM,1.33
same,relative viability,COR-L 105; first compound 2.53 µM,0.88
same,relative viability,COR-L 105; first compound 8 µM,0.874
same,relative viability,UMC-11; first compound 0.08 µM,1.03
same,relative viability,UMC-11; first compound 0.8 µM,1.08
same,relative viability,UMC-11; first compound 2.53 µM,1.11
same,relative viability,UMC-11; first compound 8 µM,0.984
same,relative viability,NCI-H1792; first compound 0.08 µM,0.589
same,relative viability,NCI-H1792; first compound 0.8 µM,0.607
same,relative viability,NCI-H1792; first compound 2.53 µM,0.72
same,relative viability,NCI-H1792; first compound 8 µM,0.434
same,relative viability,NCI-H1944; first compound 0.08 µM,1.15
same,relative viability,NCI-H1944; first compound 0.8 µM,1.39
same,relative viability,NCI-H1944; first compound 2.53 µM,1.17
same,relative viability,NCI-H1944; first compound 8 µM,1.12
same,relative viability,NCI-H2085; first compound 0.08 µM,0.909
same,relative viability,NCI-H2085; first compound 0.8 µM,1.02
same,relative viability,NCI-H2085; first compound 2.53 µM,0.972
same,relative viability,NCI-H2085; first compound 8 µM,1.04
same,relative viability,EPLC-272H; first compound 0.08 µM,1.31
same,relative viability,EPLC-272H; first compound 0.8 µM,1.48
same,relative viability,EPLC-272H; first compound 2.53 µM,1.32
same,relative viability,EPLC-272H; first compound 8 µM,1.03
same,relative viability,NCI-H2023; first compound 0.08 µM,0.707
same,relative viability,NCI-H2023; first compound 0.8 µM,0.66
same,relative viability,NCI-H2023; first compound 2.53 µM,0.794
same,relative viability,NCI-H2023; first compound 8 µM,0.609
same,relative viability,NCI-H358; first compound 0.08 µM,0.691
same,relative viability,NCI-H358; first compound 0.8 µM,0.908
same,relative viability,NCI-H358; first compound 2.53 µM,0.92
same,relative viability,NCI-H358; first compound 8 µM,0.842
same,relative viability,HCC-15; first compound 0.08 µM,0.922
same,relative viability,HCC-15; first compound 0.8 µM,0.895
same,relative viability,HCC-15; first compound 2.53 µM,0.996
same,relative viability,HCC-15; first compound 8 µM,0.905
same,relative viability,COR-L23; first compound 0.08 µM,0.896
same,relative viability,COR-L23; first compound 0.8 µM,1.08
same,relative viability,COR-L23; first compound 2.53 µM,0.962
same,relative viability,COR-L23; first compound 8 µM,1.05
same,relative viability,NCI-H1395; first compound 0.08 µM,1.22
same,relative viability,NCI-H1395; first compound 0.8 µM,1.38
same,relative viability,NCI-H1395; first compound 2.53 µM,0.99
same,relative viability,NCI-H1395; first compound 8 µM,0.873
same,relative viability,NCI-H661; first compound 0.08 µM,0.635
same,relative viability,NCI-H661; first compound 0.8 µM,0.717
same,relative viability,NCI-H661; first compound 2.53 µM,0.546
same,relative viability,NCI-H661; first compound 8 µM,0.623
same,relative viability,HCC-44; first compound 0.08 µM,0.739
same,relative viability,HCC-44; first compound 0.8 µM,0.654
same,relative viability,HCC-44; first compound 2.53 µM,0.742
same,relative viability,HCC-44; first compound 8 µM,0.642
same,relative viability,LCLC-103H; first compound 0.08 µM,1.03
same,relative viability,LCLC-103H; first compound 0.8 µM,1.11
same,relative viability,LCLC-103H; first compound 2.53 µM,1.1
same,relative viability,LCLC-103H; first compound 8 µM,1.03
same,relative viability,NCI-H2405; first compound 0.08 µM,0.978
same,relative viability,NCI-H2405; first compound 0.8 µM,1.16
same,relative viability,NCI-H2405; first compound 2.53 µM,0.973
same,relative viability,NCI-H2405; first compound 8 µM,0.92
same,relative viability,HARA; first compound 0.08 µM,0.972
same,relative viability,HARA; first compound 0.8 µM,0.914
same,relative viability,HARA; first compound 2.53 µM,0.996
same,relative viability,HARA; first compound 8 µM,1.16
same,relative viability,NCI-H1975; first compound 0.08 µM,0.976
same,relative viability,NCI-H1975; first compound 0.8 µM,0.994
same,relative viability,NCI-H1975; first compound 2.53 µM,1.04
same,relative viability,NCI-H1975; first compound 8 µM,0.973
